# Data from the NIST ThermoML archive (doi:10.1021/je4001944).
# Numbers after ± are expanded uncertainties.
# Conditions: 101 kPa, Liquid
SMILES,mass density (298.15 K),mass density (308.15 K),mass density (323.15 K)
CCCCCCCCCCn1cc[n+](C)c1.O=S(=O)([N-]S(=O)(=O)C(F)(F)F)C(F)(F)F,1284 ± 10 kg/m3,1256 ± 10 kg/m3,1221 ± 10 kg/m3
CCCCCC[n+]1ccn(C)c1.O=S(=O)([N-]S(=O)(=O)C(F)(F)F)C(F)(F)F,1391 ± 11 kg/m3,1373 ± 11 kg/m3,1340 ± 10 kg/m3
CCCCCCCCn1cc[n+](C)c1.O=S(=O)([N-]S(=O)(=O)C(F)(F)F)C(F)(F)F,1343 ± 11 kg/m3,1323 ± 10 kg/m3,1287 ± 10 kg/m3
